Where two headings read alike, the source gives them in different places.
Target: T1, human androgen receptor (hAR) (Homo sapiens, UniProt P10275)
T1 sequence (P10275 1-920): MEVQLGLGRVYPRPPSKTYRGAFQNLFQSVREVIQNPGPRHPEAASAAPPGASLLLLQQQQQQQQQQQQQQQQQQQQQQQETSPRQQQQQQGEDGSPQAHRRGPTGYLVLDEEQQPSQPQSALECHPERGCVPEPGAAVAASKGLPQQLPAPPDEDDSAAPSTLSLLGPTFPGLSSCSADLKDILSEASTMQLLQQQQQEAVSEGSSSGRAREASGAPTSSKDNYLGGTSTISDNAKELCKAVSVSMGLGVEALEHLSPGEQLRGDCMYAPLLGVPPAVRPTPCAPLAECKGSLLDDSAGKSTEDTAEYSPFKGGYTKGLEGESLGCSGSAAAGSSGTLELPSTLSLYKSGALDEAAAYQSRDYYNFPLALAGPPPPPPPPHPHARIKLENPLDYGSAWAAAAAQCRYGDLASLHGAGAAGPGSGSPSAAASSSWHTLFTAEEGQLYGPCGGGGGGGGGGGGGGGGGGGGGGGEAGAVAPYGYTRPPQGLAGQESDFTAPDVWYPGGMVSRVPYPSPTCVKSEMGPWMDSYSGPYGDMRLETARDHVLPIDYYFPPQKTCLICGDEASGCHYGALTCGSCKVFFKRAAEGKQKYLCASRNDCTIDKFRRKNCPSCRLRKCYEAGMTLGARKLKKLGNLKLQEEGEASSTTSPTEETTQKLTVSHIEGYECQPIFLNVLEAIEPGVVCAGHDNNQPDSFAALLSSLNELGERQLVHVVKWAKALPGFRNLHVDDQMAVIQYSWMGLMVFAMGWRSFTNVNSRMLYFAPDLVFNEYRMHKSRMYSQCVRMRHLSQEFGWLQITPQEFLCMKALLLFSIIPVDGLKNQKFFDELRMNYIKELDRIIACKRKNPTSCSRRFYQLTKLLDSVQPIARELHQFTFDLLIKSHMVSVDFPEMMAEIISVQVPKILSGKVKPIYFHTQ
Assay: Functional response test: hAR transactivation (luciferase reporter) in HALP2 cells
Assay type: cell-based
Conditions: for EC50: agonism, HALP2 cells (HeLa, hAR + ARE-luciferase), 20 hours at 37° C.
Source text: This test constitutes a method of identifying pure or partial agonists which mimic the effects of natural hormones, such as DHT (dihydrotestosterone) in the present case or, on the other hand, antagonists which inhibit them.
For this transactivation test, plasmids encoding a reporter gene and the human androgen receptor (hAR) are introduced together by transfection into the HeLa cell line. The reporter plasmid contains luciferase cDNA under the control of the AREs contained in the promoter sequences of the probasin gene (3xpbAREminicoll-luciferase/pGL3-puro). The expression of the reporter gene constitutes an indication of the transcriptional activity of hAR. It also encodes a protein allowing the cells expressing it to resist a treatment with puromycin. The plasmid encoding hAR contains the cDNA of hAR under the control of the Cytomegalovirus (CMV) promoter. It also encodes a protein allowing the cells expressing it to resist a treatment with neomycin. The treatment of cells with increasing amounts of potentially agonistic compounds will increase the expression of the reporter gene. To detect antagonists, on the other hand, increasing doses of test compounds are tested in the presence of […] of DHT. The expression of the reporter gene, which is constant for each dose of DHT, decreases when the concentration of the test compounds increases.
For this test, HeLa cells were obtained from the American Type Culture Collection (Rockville, Md.) and cultivated in DMEM medium containing 4.5 g/l of glucose, supplemented with Glutamax and with nonessential amino-acids and with 10% of foetal calf serum (SVF; Dominique Dutscher).
On the day before transfection, a million cells were seeded in DMEM medium without phenol red, supplemented with Glutamax and with desteroided SVF (5%) in Petri dishes. The cells were transfected with 4 μg of the puromycin resistance plasmids pcDNA3-hAR and 3xpbAREminicoll-luciferase/pGL3 using the reagent “Lipofectamine plus” (Invitrogen), following the supplier's recommendations. The day after transfection, the cells were seeded to different cell densities (10,000 to 100,000 cellules per Petri dish). Two days after transfection, the transfected cells were selected in DMEM medium without phenol red, supplemented with Glutamax and with desteroided SVF (5%) containing 400 μg/mL of G418 (Invitrogen) and 150 ng/mL of puromycin (Sigma). The culture medium was renewed weekly until resistant clones appeared. The resistant clones were removed and amplified before being tested for their functional response. […]
The functional response test was conducted on 96-well plates. The HALP2 cells were seeded (30,000 cells per well) 24 hours before the phase of stimulation in DMEM medium containing 4.5 g/L of glucose, supplemented with Glutamax and nonessential amino-acids, and with desteroided SVF (5%).
On the day of stimulation, the seeding medium was replaced by DMEM medium without phenol red, supplemented with Glutamax and with desteroided SVF (5%). […] The cells were placed in contact with the compounds for 20 hours at 37° C.

[1] = antagonism, concentration which increases the EC50 of the DHT by a factor of 2, Schild regression, HALP2 cells

Compound	KSchild (nM) potency [nM]	EC50 [nM]	KSchild (nM) potency [1] [nM]
COc1ccc2c(c1)CCC21C(=O)N(c2ccc(C#N)c(C(F)(F)F)c2)C(=O)N1C (centres unmarked) [Example 165, 4-[2′,3′-dihydro-2,5-dioxo-5′-methoxy-3-methylspiro(imidazolidin-4,1′(1H)inden)-1-yl]-2-trifluoromethylbenzonitrile]	60		
O=C1C(c2ccc(O)cc2)N(CCO)C(=O)N1c1ccc(F)c(C(F)(F)F)c1 (centres unmarked) [Example 142]		141	141.42
CN(C)CCN1C(=O)N(c2ccc(Cl)c(Cl)c2)C(=O)C1c1ccc(O)cc1 (centres unmarked) [Example 115]		141	141.42
CCC1(c2cc(F)c(OC)c(F)c2)C(=O)N(c2ccc(C#N)c(C(F)(F)F)c2)C(=O)N1C (centres unmarked) [Example 167, 4-[4-(3,5-difluoro-4-methoxyphenyl)-2,5-dioxo-4-ethyl-3-methylimidazolidin-1-yl]-2-trifluoromethylbenzonitrile]	54.77		
N#CCN1C(=O)N(c2ccc(F)c(Cl)c2)C(=O)C1c1ccc(O)cc1 (centres unmarked) [Example 95]		632	632.46
CN1C(=O)N(c2ccc([N+](=O)[O-])cc2)C(=O)C1c1ccc(O)cc1 (centres unmarked) [Example 50]	9.9		
Cc1cc(C#N)ccc1N1C(=O)N(C)C(C)(c2ccc(O)cc2)C1=O (centres unmarked) [Example 36, 4-[3,4-dimethyl-2,5-dioxo-4-(4-hydroxyphenyl)imidazolidin-1-yl]-3-methylbenzonitrile]	69.28		
CN1C(=O)N(c2ccc(F)c(C(F)(F)F)c2)C(=O)C1c1ccc(O)cc1 (centres unmarked) [Example 48]		60	48.99
O=C1C(c2ccc(O)cc2)N(Cc2ccc3c(c2)OCO3)C(=O)N1c1ccc(F)c(C(F)(F)F)c1 (centres unmarked) [Example 102]		49	48.99
Cc1cc(Cl)ccc1N1C(=O)N(C)C(C)(c2ccc(O)cc2)C1=O (centres unmarked) [Example 28, 1-(4-chloro-2-methylphenyl)-3,4-dimethyl-4-(4-hydroxyphenyl)imidazolidine-2,5-dione]		24.5	24.49
CCCN1C(=O)N(c2ccc(Cl)c(Cl)c2)C(=O)C1c1ccc(O)cc1 (centres unmarked) [Example 55]		54.8	34.64
O=C1C(c2ccc(O)cc2)N(Cc2ccc3c(c2)OCO3)C(=O)N1c1ccc(F)c(Cl)c1 (centres unmarked) [Example 103]		49	48.99
O=C1C(c2ccc(O)cc2)N(CCCCO)C(=O)N1c1ccc(Cl)c(C(F)(F)F)c1 (centres unmarked) [Example 134]		122	122.47
O=C1C(c2ccc(O)cc2)N(CCO)C(=O)N1c1ccc([N+](=O)[O-])c(C(F)(F)F)c1 (centres unmarked) [Example 138]	600		
CCCN1C(=O)N(c2ccc(C#N)c(C(F)(F)F)c2)C(=O)C1c1ccc(O)cc1 (centres unmarked) [Example 60]	21.21		
CC1(c2ccc(O)cc2)C(=O)N(c2ccc(Cl)c(Cl)c2)C(=O)N1CCCO (centres unmarked) [Example 147]		300	300
Cc1ccc(S(=O)(=O)N2C(=O)N(c3ccc(C#N)c(C(F)(F)F)c3)C(=O)C2(C)c2ccc(O)cc2)cc1 (centres unmarked) [Example 243.2, 4-[2,5-dioxo-4-(4-hydroxyphenyl)-4-methyl-3-[(4-methylphenyl)sulphonyl]imidazolidin-1-yl]-2-trifluoromethylbenzonitrile]	150		
Cc1c(N2C(=O)N(C)C(C)(c3ccc(O)cc3)C2=O)ccc(C#N)c1C(F)(F)F (centres unmarked) [Example 38, 4-[3,4-dimethyl-2,5-dioxo-4-(4-hydroxyphenyl)imidazolidin-1-yl]-3-methyl-2-trifluoromethylbenzonitrile]	3		
CC1(c2ccc(O)cc2)C(=O)N(c2ccc(C#N)c(C(F)(F)F)c2)C(=O)N1CCCCO (centres unmarked) [Example 24, 4-[2,5-dioxo-3-(4-hydroxybutyl)-4-(4-hydroxyphenyl)-4-methylimidazolidin-1-yl]-2-trifluoromethylbenzonitrile]	15		
CN1C(=O)N(c2ccc(C#N)c(C(F)(F)F)c2)C(=O)C12CCc1cc(O)ccc12 (centres unmarked) [Example 181, 4-[2′,3′-dihydro-2,5-dioxo-5′-hydroxy-3-methylspiro(imidazolidin-4,1′(1H)inden)-1-yl]-2-trifluoromethylbenzonitrile]	6		
CN1C(=S)N(c2ccc(C#N)c(C(F)(F)F)c2)C(=O)C1(C)c1ccc(O)cc1 (centres unmarked) [Example 44, 4-[3,4-dimethyl-4-(4-hydroxyphenyl)-5-oxo-2-thioxoimidazolidin-1-yl]-2-trifluoromethylbenzonitrile]	4		
O=C1C(c2ccc(O)cc2)N(Cc2ccc3c(c2)OCO3)C(=O)N1c1cccc(C(F)(F)F)c1 (centres unmarked) [Example 104]		200	200
CN1C(=O)N(c2ccc(C#N)c(C(F)(F)F)c2)C(=O)[C@]1(CF)c1ccc(O)cc1 [Example 177.1, (S)-4-[4-fluoromethyl-4-(4-hydroxyphenyl)-3-methyl-2,5-dioxoimidazolidin-1-yl]-2-trifluoromethylbenzonitrile]	310		
CC1(c2ccc(O)cc2)C(=O)N(c2ccc(C#N)c(C(F)(F)F)c2)C(=O)N1C1CCCC1 (centres unmarked) [Example 24.2, 4-[3-cyclopentyl-2,5-dioxo-4-(4-hydroxyphenyl)-4-methylimidazolidin-1-yl]-2-trifluoromethylbenzonitrile]			20
CN1C(=O)N(c2ccc(Cl)c(Cl)c2)C(=O)C1(CO)c1ccc(O)cc1 (centres unmarked) [Example 190, 1-(3,4-dichlorophenyl)-4-hydroxymethyl-4-(4-hydroxyphenyl)-3-methylimidazolidine-2,5-dione]			0.37
O=C1C(c2ccc(O)cc2)N(CCO)C(=O)N1c1ccc(F)c(F)c1 (centres unmarked) [Example 140]		490	489.9
CC1(c2ccc(O)cc2)C(=O)N(c2ccc(Cl)c(Cl)c2)C(=O)N1CC#CCO (centres unmarked) [Example 242, 1-(3,4-dichlorophenyl)-3-(4-hydroxy-2-butynyl)-4-(4-hydroxyphenyl)-4-methylimidazolidine-2,5-dione]		12.3	12.25
CCOCCCN1C(=O)N(c2ccc(C#N)c(C(F)(F)F)c2)C(=O)C1c1ccc(O)cc1 (centres unmarked) [Example 82]	30		
CC(=O)CN1C(=O)N(c2ccc(C#N)c(C(F)(F)F)c2)C(=O)C1(C)c1ccc(O)cc1 (centres unmarked) [Example 235, 4-[2,5-dioxo-4-(4-hydroxyphenyl)-4-methyl-3-(2-oxopropyl)imidazolidin-1-yl]-2-trifluoromethylbenzonitrile]	8		
Cc1cc(Br)ccc1N1C(=O)N(C)C(C)(c2ccc(O)cc2)C1=O (centres unmarked) [Example 27, 1-(4-bromo-2-methylphenyl)-3,4-dimethyl-4-(4-hydroxyphenyl)imidazolidine-2,5-dione]		13.4	10.63

Source: patent US8168667B2 (Galapagos NV, priority 2006, dated 2012)
